Consider two compounds from patent US5043332A, “Novel 11β-substituted -19-nor-steriods” (priority 1981, dated 1991).

Experiment [1] concerns the target T1, Progestogen receptor of the uterus of rabbits (Oryctolagus cuniculus, UniProt P06186).
T1 construct: The uterus was removed, weighed and homogenized at 0° C; from tissue; host or cells: rabbit uterus, 105,000 g supernatant (estradiol-primed immature rabbits)
T1 sequence (P06186 1-930): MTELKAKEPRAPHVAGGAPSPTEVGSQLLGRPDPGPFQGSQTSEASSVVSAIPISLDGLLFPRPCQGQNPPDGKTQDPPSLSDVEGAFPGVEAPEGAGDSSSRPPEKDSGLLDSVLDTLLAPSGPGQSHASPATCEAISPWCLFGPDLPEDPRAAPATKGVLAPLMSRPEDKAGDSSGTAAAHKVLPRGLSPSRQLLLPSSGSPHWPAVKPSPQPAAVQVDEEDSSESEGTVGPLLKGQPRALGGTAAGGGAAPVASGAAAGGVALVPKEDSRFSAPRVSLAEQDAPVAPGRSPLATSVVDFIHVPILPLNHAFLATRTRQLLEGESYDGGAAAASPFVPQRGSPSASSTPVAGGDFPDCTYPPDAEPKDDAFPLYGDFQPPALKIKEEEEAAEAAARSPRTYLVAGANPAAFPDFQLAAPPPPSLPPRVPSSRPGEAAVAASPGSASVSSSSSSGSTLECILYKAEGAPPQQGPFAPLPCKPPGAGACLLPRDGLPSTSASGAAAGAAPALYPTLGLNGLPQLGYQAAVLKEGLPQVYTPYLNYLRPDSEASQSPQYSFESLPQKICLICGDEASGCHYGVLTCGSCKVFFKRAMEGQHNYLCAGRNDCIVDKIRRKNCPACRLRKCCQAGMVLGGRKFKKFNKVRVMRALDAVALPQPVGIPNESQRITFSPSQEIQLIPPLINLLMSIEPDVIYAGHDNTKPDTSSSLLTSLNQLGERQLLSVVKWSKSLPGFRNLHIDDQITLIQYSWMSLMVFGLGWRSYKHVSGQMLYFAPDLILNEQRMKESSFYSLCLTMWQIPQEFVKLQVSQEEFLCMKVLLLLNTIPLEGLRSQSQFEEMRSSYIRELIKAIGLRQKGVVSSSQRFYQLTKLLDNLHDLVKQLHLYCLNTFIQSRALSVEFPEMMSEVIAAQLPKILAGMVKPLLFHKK
The experiment can be described thus: Progestogen receptor binding (displacement of tritiated product R). On the set-up: species or system rabbit. Particulars: conclusion. The protocol:
C. Progestogen receptor of the uterus of rabbits
Immature rabbits weighing about 1 kg received a cutaneous application of 25 μg of estradiol and the animals were killed 5 days later. The uterus was removed, weighed and homogenized at 0° C. with a polytetrafluoroethylene-glass Potter, in a buffered TS solution [Tris 10. mM, 0.25M of saccharose, HCl-pH of 7.4] with 1 g of tissue per 50 ml of TS. […] The concentration of tied tritiated R (B) was then measured for each incubate by the technique of adsoprtion on carbon-dextran.
(§1) The calculation of the relative affinity of […] (ARL) was identical for all of the above receptor tests. One traced the following two curves: the percentage of tied tritiated hormone B/T as a function of the logarithm of the cold hormone concentration and B/T as a function of the logarithm of the concentration of the cold test product. One determined the line of the equation. [formula]
(§2) The intersection of the I50 line and the curves permits one to determine the concentrations of the cold hormone of the reference (CH) and the cold test compound (CX) which inhibit by 50% the tieing of tritiated hormone with the receptor. The relative affinity of tieing (ARL) of the test product was determined by the equation: [formula]

In experiment [2] the test system is thymocytes of surrenalectomized rats. The experiment can be described thus: Antiglucocorticoidal activity, incorporation of tritiated uridine in thymocytes. Particulars: for opposition to the effect of dexamethasone on tritiated uridine incorporation (in words): with 5×10^-8 M dexamethasone. The class given is cell-based. The protocol:
III. Antiglucocorticoidal Activity
The test used was that of Dausse et al [Molecular Pharmacology, Vol. 13 (1977), p. 948-955] entitled "The relationship between glucocorticoid structure and effects upon thymocytes" for […] thymocytes. The thymocytes of surrenalectomized rats were incubated at 37° C. for 3 hours in a nutritive medium containing 5×10^-8 M of dexamethasone in the presence or absence of the test compound at different concentrations. Tritiated uridine was added and incubation was continued for one hour. The incubates were cooled and treated with a 5% trifluoroacetic acid solution and the mixture was filtered with Whatman GF/A paper. The filter was washed 3 times with a 5% trifluoroacetic acid solution and retained radioactivity on the filter was determined.

Experiment [3] addresses T2, Androgen receptor of prostate of rats (Rattus norvegicus, UniProt P15207).
T2 construct: The prostates were removed, weighed and homogenized at 0° C; from tissue; host or cells: rat prostate, 105,000 g supernatant (castrated male Sprague-Dawley rats)
T2 sequence (P15207 1-902): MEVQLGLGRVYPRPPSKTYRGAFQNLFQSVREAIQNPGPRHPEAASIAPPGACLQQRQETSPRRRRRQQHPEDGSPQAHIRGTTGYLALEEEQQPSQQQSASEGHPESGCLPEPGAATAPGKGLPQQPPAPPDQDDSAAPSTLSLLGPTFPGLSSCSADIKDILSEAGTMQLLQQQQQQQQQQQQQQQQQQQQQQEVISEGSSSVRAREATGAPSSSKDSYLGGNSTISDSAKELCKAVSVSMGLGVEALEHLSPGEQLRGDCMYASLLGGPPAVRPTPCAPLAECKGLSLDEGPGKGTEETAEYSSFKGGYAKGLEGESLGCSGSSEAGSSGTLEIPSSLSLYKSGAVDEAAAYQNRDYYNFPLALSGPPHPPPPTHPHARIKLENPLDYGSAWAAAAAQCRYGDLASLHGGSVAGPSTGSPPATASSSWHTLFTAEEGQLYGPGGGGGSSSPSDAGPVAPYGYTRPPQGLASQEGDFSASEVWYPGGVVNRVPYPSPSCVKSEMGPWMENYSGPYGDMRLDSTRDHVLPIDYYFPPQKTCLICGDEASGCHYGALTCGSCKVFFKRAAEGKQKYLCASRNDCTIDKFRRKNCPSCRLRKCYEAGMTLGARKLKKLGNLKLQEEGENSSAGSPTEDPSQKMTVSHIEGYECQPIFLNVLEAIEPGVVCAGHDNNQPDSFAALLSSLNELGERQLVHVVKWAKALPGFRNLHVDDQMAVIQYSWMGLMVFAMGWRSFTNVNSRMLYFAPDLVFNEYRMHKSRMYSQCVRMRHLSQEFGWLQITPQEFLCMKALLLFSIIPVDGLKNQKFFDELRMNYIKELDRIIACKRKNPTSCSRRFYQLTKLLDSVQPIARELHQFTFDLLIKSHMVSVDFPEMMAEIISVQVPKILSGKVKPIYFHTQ
Kind of experiment: Androgen receptor binding (displacement of tritiated product P). The conditions noted are these: conclusion. The protocol: B. Androgen receptor of prostate of rats
Male Sprague-Dawley EPOS rats weighing of 160 to 200 g were castrated and 24 hours later, the animals were killed. The prostates were removed, weighed and homogenized at 0° C. with a polytetrafluoroethylene-glass Potter with a buffered TS solution (Tris, 10 mM, 0.25M Saccharose, HCl-pH of 7.4) using 1 g of tissue per 5 ml of TS. The homogenate was then ultracentrifuged at 105,000 g for 60 […] (T) of product P or 17α-methyl-Δ^4,9,11 -estratriene-17β-ol-3-one in the presence of increasing concentration (0-1,000×10^-9 M) of either cold P, cold testosterone or the test compound. The concentration of tied tritiated (B) was measured for each incubate by the technique of adsorption on carbon-dextran.
as §1, §2

For `CC#C[C@]1(O)CC[C@H]2[C@@H]3CCc4cc(O)ccc4[C@H]3[C@@H](c3ccc(N(C)C)cc3)C[C@@]21C` [Example 2, 11β-(4-dimethylaminophenyl)-17α-(prop-1-ynyl)-Δ^1,3,5(10) -estratriene-3,17β-diol], the “affinity for progestogen receptors (in words)” value in experiment [1] is “very remarkable affinity”. Moreover, the “opposition to the effect of dexamethasone on tritiated uridine incorporation (in words)” value in experiment [2] is listed as “opposed this effect”. Also, in experiment [3], the “affinity for androgen receptors (in words)” value was “slightly moderate affinity”.
Regarding `C#CC[C@]1(O)CC[C@H]2[C@@H]3CCC4=CC(=O)CCC4=C3[C@@H](c3ccc(N(C)C)cc3)C[C@@]21C` [Example 31, 11β-[4-(N,N-dimethylamino)-phenyl]-17α-(prop-2-ynyl)-Δ^4,9-estradiene-17β-ol-3-one], the “affinity for progestogen receptors (in words)” value in experiment [1] is “very remarkable affinity”. For the same compound, in experiment [2] (Rattus norvegicus, Thymocyte, second table, 5 × 10^-8 M dexamethasone + test product 10^-6 M, read-out: % of inhibition of effect of Dexamethasone), the inhibition at 1 µM is 99%. Besides, the inhibition at 0.1 µM in experiment [2] (Rattus norvegicus, Thymocyte, second table, 5 × 10^-8 M dexamethasone + test product 10^-7 M, read-out: % of inhibition of effect of Dexamethasone) was 60%. Further, the inhibition at 0.01 µM in experiment [2] (Rattus norvegicus, Thymocyte, second table, 5 × 10^-8 M dexamethasone + test product 10^-8 M, read-out: % of inhibition of effect of Dexamethasone) is 28%. The “opposition to the effect of dexamethasone on tritiated uridine incorporation (in words)” value in experiment [2] is on record as “opposed this effect”. Moreover, the “affinity for androgen receptors (in words)” value in experiment [3] is given as “slightly moderate affinity”.
